Results taken from patent US9927424B2, “Assays for identifying compounds that modulate bitter taste” (Chromocell Corporation, priority 2013, dated 2018).
pEC50: −log10 of the molar value.

Tests used:
TAS2R16 = TAS2R16 (Homo sapiens, UniProt Q9NYV7); conditions: PCT/US12/61400; cited from earlier work
TAS2R13 [1] = target: T1, TAS2R13 (Homo sapiens, UniProt Q9NYV9); conditions: PCT/US12/61400; cited from earlier work
T1 construct: expressed in transfected cells
T1 sequence (Q9NYV9 1-303): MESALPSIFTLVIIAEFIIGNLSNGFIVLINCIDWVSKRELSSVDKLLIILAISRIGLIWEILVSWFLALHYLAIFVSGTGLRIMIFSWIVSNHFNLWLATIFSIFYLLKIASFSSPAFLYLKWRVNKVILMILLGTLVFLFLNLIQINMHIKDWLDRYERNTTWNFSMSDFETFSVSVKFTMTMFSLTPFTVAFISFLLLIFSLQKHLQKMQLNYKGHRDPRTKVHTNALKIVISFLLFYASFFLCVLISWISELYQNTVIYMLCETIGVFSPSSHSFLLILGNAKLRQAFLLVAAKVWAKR

TAS2R4 [2] = target: T2, TAS2R4 (Homo sapiens, UniProt Q9NYW5); conditions: PCT/US12/61400; cited from earlier work
T2 construct: expressed in transfected cells
T2 sequence (Q9NYW5 1-299): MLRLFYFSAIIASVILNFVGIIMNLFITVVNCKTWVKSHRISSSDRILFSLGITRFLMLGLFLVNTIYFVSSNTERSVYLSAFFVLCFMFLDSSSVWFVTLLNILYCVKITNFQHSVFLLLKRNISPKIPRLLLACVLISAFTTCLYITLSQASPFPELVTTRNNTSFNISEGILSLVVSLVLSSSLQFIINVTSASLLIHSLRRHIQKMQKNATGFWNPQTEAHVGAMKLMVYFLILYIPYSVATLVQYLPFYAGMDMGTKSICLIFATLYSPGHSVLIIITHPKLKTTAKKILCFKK

TAS2R39 = target: T3, TAS2R39 (Homo sapiens, UniProt P59534); experiment: Calcium fluorescence functional assay, TAS2R39 cell line with mouse Gα15; assay type: cell-based
T3 construct: expressed in transfected cells
T3 sequence (P59534 1-338): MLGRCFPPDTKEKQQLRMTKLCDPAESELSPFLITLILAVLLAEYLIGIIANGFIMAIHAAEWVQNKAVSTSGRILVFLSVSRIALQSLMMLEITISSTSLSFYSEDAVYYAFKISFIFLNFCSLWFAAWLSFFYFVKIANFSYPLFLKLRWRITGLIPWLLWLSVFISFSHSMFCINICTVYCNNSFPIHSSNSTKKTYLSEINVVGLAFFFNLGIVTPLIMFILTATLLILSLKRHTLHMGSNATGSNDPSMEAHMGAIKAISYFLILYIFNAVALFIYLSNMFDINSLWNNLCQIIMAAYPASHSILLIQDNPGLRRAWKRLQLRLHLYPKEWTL
Procedure: (§1) A panel of cell lines expressing eight specific bitter taste receptors, a subset of the panel of twenty-five bitter receptors described in International Patent Application Publication WO 2010/088633 (see, e.g., Example 26), was used for the purpose of these analyses. Accordingly, each cell line of the panel expressed a human bitter taste receptor and mouse Gα15 signaling protein.
(§2) Each of the Examples below utilized the following functional assay: • Day 1: Stable cell lines were seeded onto black wall/clear bottom 96-well, plates (e.g., Corning, 3904). Approximately 40K cells were added per well and incubated at 37° C., 5% CO2 overnight in cell growth media (DMEM (Sigma, D5796) supplemented with 10% Fetal Bovine Serum (Sigma, 5178), 2 mM Glutamine (Sigma, G7513)). • Day 2: Growth media was discarded and cells were incubated at 37° C., 5% CO2 for 60 minutes in 100 ul of load solution containing 1× Ca-3 dye (Molecular Devices, R8090), 1% DMSO in buffer containing 130 mM NaCl, 2 mM CaCl2, 5 mM KCl, 1.2 mM MgCl2, 10 mM HEPES and 10 mM Glucose (pH 7.0). Probenecid was not included in the load solution. • Functional assay: After dye loading, cell plates were placed in a fluorescent plate reader (e.g., FDSS6000 (Hamamatsu, Japan)) and receptor stimulation was measured by adding 50 ul of 3× concentrated ligand/agonist stock. Fluorescence was monitored continuously for 10 s before agonist addition and for 100-250 s after stimulation with agonist.
(§3) Receptor Activation is defined as follows: • % Activation=[((Maximum signal fluorescence−Minimum signal fluorescence)−(Maximum control fluorescence−Minimum control fluorescence))/(Maximum buffer fluorescence−Minimum buffer fluorescence)]*100 • Functional Response=[(Maximum signal fluorescence−Minimum signal fluorescence)−(Maximum control fluorescence−Minimum control fluorescence)] • Signal fluorescence: refers to the change in fluorescence seen with addition of ligand • Control fluorescence: refers to the change in fluorescence seen with addition of buffer (negative control) • Calcium signals from ligand and control were normalized to the basal fluorescence of the cells prior to the stimulation.
(§4) A concentration analysis was performed and EC50 values were calculated by nonlinear regression using the formula: Y=Bottom+(Top−Bottom)/(1+10^((Log EC50−X)*Hill Slope)), X=log of dose or concentration, Y=Response (increasing as X increases), Top=maximum signal, Bottom=minimum signal. EC50 (half maximal effective concentration) refers to the molar concentration of the agonist which produces 50% of the maximum possible effective response from that agonist.

TAS2R44 [3] = target: T4, TAS2R44 (Homo sapiens, UniProt P59538); conditions: PCT/US12/61400; cited from earlier work
T4 construct: expressed in transfected cells
T4 sequence (P59538 1-309): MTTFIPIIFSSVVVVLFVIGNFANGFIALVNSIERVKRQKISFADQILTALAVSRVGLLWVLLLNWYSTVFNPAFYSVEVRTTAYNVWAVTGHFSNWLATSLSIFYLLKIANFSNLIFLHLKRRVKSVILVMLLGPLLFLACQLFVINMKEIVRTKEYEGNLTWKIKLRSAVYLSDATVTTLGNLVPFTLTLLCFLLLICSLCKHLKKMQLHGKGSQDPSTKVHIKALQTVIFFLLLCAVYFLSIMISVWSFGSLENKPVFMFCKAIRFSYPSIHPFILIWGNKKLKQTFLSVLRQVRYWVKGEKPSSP

TAS2R14 [4] = target: T5, TAS2R14 (Homo sapiens, UniProt Q9NYV8); conditions: PCT/US12/61400; cited from earlier work
T5 construct: expressed in transfected cells
T5 sequence (Q9NYV8 1-317): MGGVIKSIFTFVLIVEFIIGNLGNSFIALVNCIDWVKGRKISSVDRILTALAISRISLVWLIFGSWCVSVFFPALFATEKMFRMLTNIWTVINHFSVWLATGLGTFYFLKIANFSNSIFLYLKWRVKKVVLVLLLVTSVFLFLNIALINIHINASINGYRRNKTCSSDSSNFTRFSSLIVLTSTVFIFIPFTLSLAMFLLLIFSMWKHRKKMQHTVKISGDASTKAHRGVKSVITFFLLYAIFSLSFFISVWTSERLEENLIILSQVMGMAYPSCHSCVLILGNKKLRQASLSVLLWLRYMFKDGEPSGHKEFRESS

TAS2R1 = TAS2R1 (Homo sapiens, UniProt Q9NYW7); conditions: PCT/US12/61400; cited from earlier work
TAS2R1, sequence (Q9NYW7 whole entry): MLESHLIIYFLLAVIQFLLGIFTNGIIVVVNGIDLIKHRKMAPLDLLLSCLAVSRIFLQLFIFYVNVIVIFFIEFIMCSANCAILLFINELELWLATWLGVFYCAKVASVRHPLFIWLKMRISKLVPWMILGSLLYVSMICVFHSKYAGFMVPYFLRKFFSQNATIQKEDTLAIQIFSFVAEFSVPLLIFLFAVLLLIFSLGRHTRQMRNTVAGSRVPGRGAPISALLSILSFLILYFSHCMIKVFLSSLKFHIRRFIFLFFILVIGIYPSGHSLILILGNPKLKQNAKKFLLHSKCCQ

TAS2R38 (PAV) = target: T6, TAS2R38 (PAV) (Homo sapiens, UniProt P59533, A49P/I296V); experiment: Calcium fluorescence functional assay, TAS2R38 (PAV) cell line with mouse Gα15; assay type: cell-based
T6 construct: expressed in transfected cells
T6 sequence (P59533 1-333 A49P/I296V): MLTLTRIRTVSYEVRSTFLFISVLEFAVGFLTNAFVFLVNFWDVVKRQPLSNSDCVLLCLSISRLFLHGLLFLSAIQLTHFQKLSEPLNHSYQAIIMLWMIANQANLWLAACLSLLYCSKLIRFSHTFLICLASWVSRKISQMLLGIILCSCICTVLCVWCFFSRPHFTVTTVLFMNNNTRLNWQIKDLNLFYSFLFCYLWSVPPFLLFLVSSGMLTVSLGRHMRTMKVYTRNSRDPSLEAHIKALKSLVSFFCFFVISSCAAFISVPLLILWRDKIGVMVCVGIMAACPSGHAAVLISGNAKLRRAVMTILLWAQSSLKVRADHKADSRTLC
Procedure: as §1, §2, §3, §4

TAS2R9 [5] = target: T7, TAS2R9 (Homo sapiens, UniProt Q9NYW1); conditions: PCT/US12/61400; cited from earlier work
T7 construct: expressed in transfected cells
T7 sequence (Q9NYW1 1-312): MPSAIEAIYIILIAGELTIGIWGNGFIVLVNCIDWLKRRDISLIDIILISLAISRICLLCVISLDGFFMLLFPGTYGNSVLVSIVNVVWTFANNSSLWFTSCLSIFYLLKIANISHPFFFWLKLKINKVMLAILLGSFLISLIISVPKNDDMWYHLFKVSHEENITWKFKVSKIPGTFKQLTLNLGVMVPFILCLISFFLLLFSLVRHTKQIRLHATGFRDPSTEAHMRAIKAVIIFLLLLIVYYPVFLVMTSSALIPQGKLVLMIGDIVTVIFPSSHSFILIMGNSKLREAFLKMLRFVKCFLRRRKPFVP

TAS2R9 [6] = target: T7, TAS2R9; experiment: Calcium fluorescence functional assay, TAS2R9 cell line with mouse Gα15; assay type: cell-based; conditions: 20 mM tastant; change in intracellular calcium
Procedure: as §1, §2, §3, §4

TAS2R14 [7] = target: T5, TAS2R14; experiment: Calcium fluorescence functional assay, TAS2R14 cell line with mouse Gα15; assay type: cell-based; conditions: 20 mM tastant; change in intracellular calcium
Procedure: as §1, §2, §3, §4

TAS2R44 [8] = target: T4, TAS2R44; experiment: Calcium fluorescence functional assay, TAS2R44 cell line with mouse Gα15; assay type: cell-based; conditions: 20 mM tastant; change in intracellular calcium
Procedure: as §1, §2, §3, §4

TAS2R4 [9] = target: T2, TAS2R4; experiment: Calcium fluorescence functional assay, TAS2R4 cell line with mouse Gα15; assay type: cell-based; conditions: 20 mM tastant; change in intracellular calcium
Procedure: as §1, §2, §3, §4

TAS2R13 [10] = target: T1, TAS2R13; experiment: Calcium fluorescence functional assay, TAS2R13 cell line with mouse Gα15; assay type: cell-based; conditions: 20 mM tastant; change in intracellular calcium
Procedure: as §1, §2, §3, §4

[11] = 20 mM tastant, change in intracellular calcium
[12] = approximately, increasing concentrations of tastant

TAS2R16, sequence (Q9NYV7 whole entry): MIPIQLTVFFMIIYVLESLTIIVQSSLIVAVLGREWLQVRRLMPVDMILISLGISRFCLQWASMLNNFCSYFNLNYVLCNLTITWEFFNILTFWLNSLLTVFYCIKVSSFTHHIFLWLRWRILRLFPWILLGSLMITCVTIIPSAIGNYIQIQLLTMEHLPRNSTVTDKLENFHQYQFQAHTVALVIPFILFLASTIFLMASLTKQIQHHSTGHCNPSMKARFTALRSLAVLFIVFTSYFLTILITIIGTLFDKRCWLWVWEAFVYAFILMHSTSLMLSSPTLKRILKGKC

| TAS2R39 bitter receptor activity (functional response) (TAS2R39; [11]) | pEC50 (TAS2R39; [12]) | TAS2R38 (PAV) bitter receptor activity (functional response) (TAS2R38 (PAV); [11]) | pEC50 (TAS2R38 (PAV); [12]) | Compound | TAS2R16 response to stimulation, previously shown (TAS2R16) | TAS2R13 response to stimulation, previously shown (TAS2R13 [1]) | TAS2R4 response to stimulation, previously shown (TAS2R4 [2]) | TAS2R44 response to stimulation, previously shown (TAS2R44 [3]) | TAS2R14 response to stimulation, previously shown (TAS2R14 [4]) | TAS2R1 response to stimulation, previously shown (TAS2R1) | TAS2R9 response to stimulation, previously shown (TAS2R9 [5]) | TAS2R9 bitter receptor activity (functional response) (TAS2R9 [6]) | TAS2R14 bitter receptor activity (functional response) (TAS2R14 [7]) | TAS2R44 bitter receptor activity (functional response) (TAS2R44 [8]) | TAS2R4 bitter receptor activity (functional response) (TAS2R4 [9]) | TAS2R13 bitter receptor activity (functional response) (TAS2R13 [10]) |
| --- | --- | --- | --- | --- | --- | --- | --- | --- | --- | --- | --- | --- | --- | --- | --- | --- |
| strongly and specifically responded | 2.00 to 2.30 | strongly and specifically responded | 2.00 to 2.30 | CC1=CC(=O)NS(=O)(=O)O1 [Acesulfame K] | specifically respond | specifically respond | specifically respond | specifically respond | specifically respond | specifically respond | specifically respond | – | – | – | – | – |
| – | – | – | – | CC(O)C(=O)[O-].[K+] (stereo not shown) [potassium lactate] | – | – | – | – | – | – | – | activate | activate | activate | activate | activate |
